Earlier results as cited in patent publication US20050143343A1, “Nutritional supplement for enhancing the production and effect of natural human growth hormone” (priority 2003, published 2005).

Tested on: human growth hormone secretion
Conditions: oral administration, 15 male volunteers; 1200 mg of each constituent, in combination or alone at the same doses

Compound	secretion (release) of human growth hormone
Cl.NCCCC[C@H](N)C(=O)O [L-lysine hydrochloride]	Neither of the two constituents resulted a significant release of human growth hormone
L-arginine-2-pyrrolidone-5-carboxylate	Neither of the two constituents resulted a significant release of human growth hormone
